Results from paper PMC12118597 (Science Advances, 2025).
Several values for one entry are separate records, joined by “and”; a condition that tells them apart may be missing. Equal entries are not always repeated. Where two headings read alike, the source gives them in different places.

Assays:
[1] = target: T1, SARS-CoV-2 NSP3 macrodomain (Mac1) (Severe acute respiratory syndrome coronavirus 2, UniProt P0DTD1); test: biochemical; assay type: binding
[2] = target: T1, SARS-CoV-2 NSP3 macrodomain (Mac1); assay type: binding; details: for 1-BDC: PanDDA background density correction factor; for PanDDA run, overall: Hit / PanDDA run, DMSO background map: 1-BDC / PanDDA run, DMSO background map: Hit / PanDDA run, TFA/DMSO background map: 1-BDC / PanDDA run, TFA/DMSO background map: Hit: crystal soak 10 mM; for PanDDA run, overall: Hit: P43 crystal form; for Total number of conformations: ligand conformations modeled in the crystal structure; for Number of isomers bound: ligand modeling, Mac1 crystal soak; for 2*(1-BDC) (%): occupancy estimate from PanDDA; for Refined ligand occupancy (%): refined crystallographic occupancy; for Isomers modeled: stereoisomer(s) modeled as bound, residues 201/202/203
[3] = HTRF binding curve, SARS-CoV-2 Mac1
[4] = SARS CoV-2 macrodomain HTRF assay
[5] = SARS CoV-2 macrodomain HTRF assay, dose-response
[6] = SARS CoV-2 macrodomain HTRF assay, single dose concentration 200 μM, read-out: Average % competition
[7] = compound at 200 μM, mean of three to four technical replicates, read-out: % competition at 200 μM (preliminary HTRF screen)
[8] = SARS CoV-2 macrodomain HTRF assay, dose-response, read-out: IC50
[9] = Single dose, concentration 200 μM

| SMILES | inhibition at 200 µM [1, 7] [%] | PanDDA run, TFA/DMSO background map: 1-BDC [2] | PanDDA run, TFA/DMSO background map: Hit [2] | Number of isomers bound [2] | Average % competition [1, 9] [%] | also measured |
| --- | --- | --- | --- | --- | --- | --- |
| CC(C)(O)[C@@H]1CCCN1c1ncnc2[nH]ccc12 [AVI-1445, (S)-2-(1-(7H-pyrrolo[2,3-d]pyrimidin-4-yl)pyrrolidin-2-yl)propan-2-ol] | 75 | 0.12 | TRUE | 1 | – | Hill slope [1, 3]: 1.1; Ki [1, 4]: 100 µM; Ligand efficiency (binding enery per heavy atom) [1, 4]: 0.31; Hill slope [1, 5]: 1.6; inhibition at 200 µM [1, 6]: 75%; IC50 ([1]; read-out: IC50 (confirmatory HTRF dose-response screen)): 110 µM; Occupancy difference (refined_occupancy - 2*(1-BDC)) [2]: 0; 1-BDC [2]: 0.12; PanDDA run, overall: Hit [2]: TRUE; PanDDA run, DMSO background map: 1-BDC [2]: 0.12; PanDDA run, DMSO background map: Hit [2]: TRUE; Total number of conformations [2]: 1; X-ray crystal structure ([2]; ligand-bound crystal structure obtained (TRUE)): TRUE; 2*(1-BDC) (%) [2]: 24%; Refined ligand occupancy (%) [2]: 24%; Binding site ([2]; site occupied in X-ray crystal structure): Adenosine |
| Cc1c[nH]c2ncnc(NCC3(O)CCC3)c12 [AVI-3571, 1-(((5-methyl-7H-pyrrolo[2,3-d]pyrimidin-4-yl)amino)methyl)cyclobutan-1-ol] | – | – | – | 1 | – | Hill slope [1, 3]: 1.0; Ki [1, 4]: 14 µM; Ligand efficiency (binding enery per heavy atom) [1, 4]: 0.39; Hill slope [1, 5]: 1.0; IC50 [1, 8]: 15 µM; Occupancy difference (refined_occupancy - 2*(1-BDC)) [2]: 0; 1-BDC [2]: 0.15; X-ray crystal structure ([2]; TRUE = crystal structure with ligand obtained): TRUE; PanDDA run, overall: Hit [2]: TRUE; PanDDA run, DMSO background map: 1-BDC [2]: 0.15 and 0.2; PanDDA run, DMSO background map: Hit [2]: TRUE; Total number of conformations [2]: 2; 2*(1-BDC) (%) [2]: 30%; Refined ligand occupancy (%) [2]: 30%; Binding site ([2]; site of ligand in X-ray crystal structure): Adenosine |
| CCC(Nc1ncnc2[nH]ccc12)C(C)O (stereo not drawn) [AVI-3635] | 54 | 0.11 and 0.08 | TRUE | 1 | 54 | – |
| OCC(CC(F)(F)F)Nc1ncnc2[nH]ccc12 (stereo not drawn) [AVI-3637] | 50 | 0.21 | TRUE | 1 | 50 | – |
| OCC(Nc1ncnc2[nH]ccc12)C1CCC1 (stereo not drawn) [AVI-3638] | 77 | 0.1 | TRUE | 1 | 77 | – |
| O=C(O)C(F)(F)F.O[C@H]1CCC[C@@H]1Nc1ncnc2[nH]ccc12 [AVI-3639] | 74 | 0.09 | TRUE | 1 | 74 | – |
| OCC(CC1CCC1)Nc1ncnc2[nH]ccc12 (stereo not drawn) [AVI-3641] | 32 | 0.11 | TRUE | 1 | 32 | – |
| OCC(CC(O)c1ccccc1)Nc1ncnc2[nH]ccc12 (stereo not drawn) [AVI-3642] | < 10 | 0.17 | TRUE | 1 | <10 | – |
| CCCC(CO)Nc1ncnc2[nH]ccc12 (stereo not drawn) [AVI-3643] | 63 | 0.14 | TRUE | 1 | – | inhibition at 200 µM ([1]; Single dose, concentration 200 μM, read-out: Average % competition): 63% |
| C#CCC(CO)Nc1ncnc2[nH]ccc12 (stereo not drawn) [AVI-3644] | 43 | 0.11 | TRUE | 1 | 43 | – |
| OC1CCCN(c2ncnc3[nH]ccc23)C1 (stereo not drawn) [AVI-3646] | 20 | 0.13 | TRUE | 1 | – | Average % competition ([1]; SARS CoV-2 macrodomain HTRF assay, single dose concentration 200 μM): 20% |
| CC(C)(C)CC(CO)Nc1ncnc2[nH]ccc12 (stereo not drawn) [AVI-3648] | 27 | 0.16 | TRUE | 1 | 27 | – |
| OCC(Nc1ncnc2[nH]ccc12)C1CCCC1 (stereo not drawn) [AVI-3649] | 68 | 0.11 | TRUE | 1 | 68 | – |
| OCC(Cc1c[nH]c2ccccc12)Nc1ncnc2[nH]ccc12 (stereo not drawn) [AVI-3650] | 71 | 0.11 | TRUE | 2 | 71 | Isomers modeled [2]: R,S |
| OCC(Nc1ncnc2[nH]ccc12)C1CC1 (stereo not drawn) [AVI-3651] | – | 0.16 | TRUE | 1 | – | Ki [1, 4]: 45 µM; Ligand efficiency (binding enery per heavy atom) [1, 4]: 0.38; IC50 [1, 8]: 48 µM |
| OC(c1ccccc1)C1CCCN1c1ncnc2[nH]ccc12 (stereo not drawn) [AVI-3652] | 35 | 0.16 | TRUE | 1 | – | inhibition at 200 µM [1, 6]: 35% |
| CC1CCN(c2ncnc3[nH]ccc23)C1CO (stereo not drawn) [AVI-3655] | 75 | 0.18 | TRUE | 1 | – | inhibition at 200 µM [1, 6]: 75% |
| CO[C@@H]1C[C@H](CO)N(c2ncnc3[nH]ccc23)C1 [AVI-3656] | 41 | – | – | 1 | – | inhibition at 200 µM [1, 6]: 41% |
| Cn1cc(CC(CO)Nc2ncnc3[nH]ccc23)cn1 (stereo not drawn) [AVI-3657] | 24 | 0.09 | TRUE | 1 | 24 | – |
| OCC(CC1OCCO1)Nc1ncnc2[nH]ccc12 (stereo not drawn) [AVI-3658] | 11 | – | – | 1 | 11 | – |
| OCC(Nc1ncnc2[nH]ccc12)c1ccco1 (stereo not drawn) [AVI-3659] | 55 | 0.08 | TRUE | 1 | 55 | – |
| OCC(CC1CCCO1)Nc1ncnc2[nH]ccc12 (stereo not drawn) [AVI-3660] | 18 | 0.17 | TRUE | 1 | 18 | – |
| OC1CCN(c2ncnc3[nH]ccc23)C1 (stereo not drawn) [AVI-3661] | 11 | 0.12 | TRUE | – | – | inhibition at 200 µM [1, 6]: 11% |
| OCC(CC1CC1)Nc1ncnc2[nH]ccc12 (stereo not drawn) [AVI-3662] | 44 | 0.09 | TRUE | 1 | 44 | – |
| O[C@H]1CC[C@@H]2CCN(c3ncnc4[nH]ccc34)[C@@H]21 [AVI-3664] | – | 0.15 | TRUE | 1 | – | Ki [1, 4]: 26 µM; Ligand efficiency (binding enery per heavy atom) [1, 4]: 0.35; IC50 [1, 8]: 28 µM; Isomers modeled [2]: SRS |
